Results on 4 molecules are retold here after paper PMC11350809, “Targeting N-Acetylglucosaminidase in Staphylococcus aureus with Iminosugar Inhibitors” (Antibiotics, 2024).

Broadly, the MIC is the smallest concentration in the dilution series that meets the test's criterion for growth inhibition. Broadly, the IC50 is the concentration that gives 50% inhibition.

For one experiment, the target named is autolysin E (AtlE) (Staphylococcus aureus, UniProt A0A0H3JT72). Description: Surface plasmon resonance (SPR) binding to immobilized AtlE. The note with it: for maximal SPR response compared with the maximal theoretical response: theoretical response calculated from molecular masses of AtlE and compound, surfactant P20 in running buffer. On the procedure: The potential inhibitory effect of compounds that bind to AtlE was measured using surface plasmon resonance (SPR). The protein was covalently attached to the surface of the CM5 sensor chip (5200 response units (RU)). The compounds were prepared as 20 mM stock solutions in DMSO and diluted with HEPES running buffer with 2.5% DMSO. Some compounds were less soluble, which was also predicted by the in silico programs and QSAR models for aqueous solubility (see Supplementary Table S3).
Sequence of autolysin E (AtlE) (A0A0H3JT72 entry or part of it): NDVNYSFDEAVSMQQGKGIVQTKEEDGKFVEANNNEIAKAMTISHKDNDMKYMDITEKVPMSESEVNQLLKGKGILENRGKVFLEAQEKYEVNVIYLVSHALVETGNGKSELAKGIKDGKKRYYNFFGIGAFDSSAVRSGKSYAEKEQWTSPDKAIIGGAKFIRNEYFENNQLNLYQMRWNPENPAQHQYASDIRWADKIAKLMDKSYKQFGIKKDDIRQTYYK
The binding of iminosugars was recorded and analyzed using the Biacore T200 3.2.1 software v3.2.1 Evaluation (for results, see Table 1). […] Therefore, for further testing of AtlE binding, the iminosugar derivatives with a lipophilic tail were chosen (1,5-dideoxy-1,5-imino-D-xylitol derivatives (DIX)).
Three compounds, 1, 3 and 8, were identified as AtlE binders. Two of them, 1 and 3, were titrated at eight different concentrations, while compound 8 was titrated firstly at six different concentrations (Figure 4a) and secondly at seven concentrations (Figure S2). The equilibrium dissociation constant KD was estimated using the 1:1 steady-state affinity binding model, with the graphs showing the response units as a function of inhibitor concentration (Figure 4b). […] The maximal theoretical response was calculated using the molecular masses of AtlE and the compounds, respectively. […] Due to the amphiphilicity of the compounds with a hydrophilic sugar unit in the head and a hydrophobic fatty acid residue in the tail, we can assume that both compounds can form oligomeric micelles. To prevent the formation of micelles, we added a surfactant P20 to the running buffer, but the maximum theoretical binding to AtlE was not reached for compounds 1 and 3. This brings into question the true nature of their binding and should be verified by another independent method.
Figure 4 (a) Representative SPR sensorgrams (response curves) and (b) representative saturation curves with evaluated KD for compounds 1, 3 and 8 at different concentrations. SPR analysis of compound 1, 3 and 8 interactions with the immobilized AtlE. Compounds were injected across immobilized AtlE in serial dilutions for 60 s at a rate of […], and the dissociation was followed for 50 s. Sensorgrams are shown along with the apparent equilibrium dissociation constant (KD) determined from the response curves as a function of the compound concentration injected across AtlE. KD values are the mean ± standard deviation of three titrations. The data were fitted to the steady-state affinity binding model.
Surface plasmon resonance (SPR) experiments were performed at 25 °C using a Biacore T200 (Biacore, GE Healthcare, Uppsala, Sweden) instrument with Series S sensor chip CM5 (GE Healthcare). […]

For a further experiment, the system named is S. aureus (ATCC 29213). The experiment is described as follows: Minimal inhibitory concentration, broth microdilution. Type of experiment: cell-based, Staphylococcus aureus. The note with it: for MIC: Staphylococcus aureus, ATCC29213, broth microdilution, 20 h at 35 °C, read-out: MIC S. aureus ATCC29213. As to the method:
(§1) The minimal inhibitory concentrations (MICs) were determined against the bacterial strains S. aureus (ATCC 29213) and E. coli (ATCC 25922), and the results are presented in Table S6.
(§2) Antimicrobial testing was carried out by the broth microdilution method in a 96-well plate format following the CLSI guidelines and European Committee for Antimicrobial Susceptibility Testing (EUCAST) recommendations. Bacterial suspension of a specific bacterial strain equivalent to 0.5 McFarland turbidity standard was diluted with cation-adjusted Mueller Hinton broth to obtain a final inoculum of 10^5 CFU/mL. Compounds dissolved in 20% DMSO and inoculum were mixed together and incubated for 20 h at 35 °C. After incubation, the minimal inhibitory concentration (MIC) values were determined by visual inspection as the lowest dilution of compounds showing no turbidity. The MICs were determined against S. aureus (ATCC 29213) and E. coli (ATCC 25922) bacterial strains. Tetracycline was used as a positive control on every assay plate, showing MICs of 0.5 µg/mL and 1 µg/mL for S. aureus and E. coli, respectively.
(Dilution methods test growth across graded concentrations, often in twofold steps.)

A further experiment relates to E. coli (ATCC 25922). The experiment is described as follows: Minimal inhibitory concentration, broth microdilution (negative control strain). The note with it: Escherichia coli, ATCC25922; broth microdilution, 20 h at 35 °C; read-out: MIC E. coli ATCC25922. The class given is cell-based. As to the method: as §1, §2
Experiment [1] has as its target α-Glucosidase (from baker's yeast). The note with it: cited from earlier work.
Experiment [2] deals with α-Galactosidase (from green coffee beans). As to conditions: cited from earlier work.
For experiment [3], the target named is β-Glucosidase (from almond). The note with it: cited from earlier work.
Experiment [4] concerns the target β-Galactosidase (from bovine liver). The note with it: cited from earlier work.
Another experiment addresses naringinase (Nar). As to conditions: cited from earlier work.
For experiment [5], the system named is human recombinant β-glucocerebrosidase (GBA). The note with it: cited from earlier work.
For experiment [6], the target named is β-galactocerebrosidase (GALC). As to conditions: cited from earlier work.
Where [7] appears, read: pH 7.2, p-nitrophenyl-a-d-glucopyranoside, footnote **.
[8] abbreviates: pH 6.8, p-nitrophenyl-a-d-galactopyranoside, footnote **.
[9] abbreviates: pH 5.0, p-nitrophenyl-b-d-glucopyranoside, footnote **.
Where [10] appears, read: pH 5.2, footnote **, read-out: IC50 GBA pH 5.2.
The mark [11] stands for this setting: pH 7.0, footnote **, read-out: IC50 GBA pH 7.0.

The structures appear in SMILES notation. In brackets after ≈: the same amount, converted by molar mass. Entries after “also recorded” stand apart in the source; their conditions may differ. Where two headings read alike, the source gives them in different places. Bounds are passed on as bounds.

Consider `CCCCCCCCCCNC(=O)N1CC(O)C(O)C(O)C1` (stereo not drawn) [Compound 8], for which, at autolysin E (AtlE), the “maximal SPR response compared with the maximal theoretical response” value is listed as “achieved the expected maximal theoretical response; also recorded: expected maximum theoretical response was not exceeded”. Besides, the minimum inhibitory concentration (MIC) in the experiment with S. aureus (ATCC 29213) and with E. coli (ATCC 25922) was over 500 µM throughout. The IC50 in [1] (setting [7]) is over 100 µM; in experiment [2] (setting [8]) it was over 100 µM; in [3] (setting [9]) it was over 100 µM; in [4] (footnote **) it was 10.4 ± 0.9 µM; at naringinase (Nar) (footnote **) it was over 100 µM; in [5] (setting [10]) it was over 10 µM. The IC50 in [5] (setting [11]) and in [6] (footnote **) was over 10 µM each time. Further, the “inhibitor of β-glucocerebrosidase” value in experiment [5] (in words, previous studies) is given as “not as an inhibitor of β-glucocerebrosidase”. Further, the “binding of human recombinant β-glucocerebrosidase” value in experiment [5] (in words) is on record as “no binding of this enzyme was observed”.
As for `OC[C@H]1NC[C@H](O)[C@@H](O)[C@@H]1O` [1-deoxynojirimycin, reference compound], the “binding of AtlE (SPR)” value at autolysin E (AtlE) (tested at 100 µM and 1 mM) was “no binding of AtlE; also recorded: did not inhibit AtlE”.
For the molecule `CCCCCCCCCCNC(=N)N1CC(O)C(O)C(O)C1` (stereo not drawn) [Compound 3], on autolysin E (AtlE), the “maximal SPR response compared with the maximal theoretical response” value was “higher maximal response than expected; also recorded: higher than expected maximum response”. Also, the results for the minimum inhibitory concentration (MIC) in the experiment with S. aureus (ATCC 29213) and in the experiment on E. coli (ATCC 25922) were 500 µM (≈ 158 µg/mL) and over 500 µM, respectively. In addition, the IC50 in experiment [1] (setting [7]) is over 100 µM; in [2] (setting [8]) it was over 100 µM; in [3] (setting [9]) it was 26 ± 0.9 µM; in [4] (footnote **) it was 2.7 ± 0.2 µM; on naringinase (Nar) (footnote **), 41.5 ± 0.2 µM; in experiment [5] (setting [10]), 0.09 ± 0.01 µM. The IC50 in [5] (setting [11]) was 0.03 ± 0.01 µM; in experiment [6] (footnote **), over 10 µM. Moreover, in experiment [5] (in words), the “IC50 human recombinant β-glucocerebrosidase” value was “low nanomolar range”.
Take `CCCCCCCCCCCCCCN=C1OCC2C(O)C(O)C(O)CN12` (stereo not drawn) [Compound 1]: at autolysin E (AtlE), the “maximal SPR response compared with the maximal theoretical response” value is given as “higher maximal response than expected; also recorded: higher than expected maximum response”. For the same molecule, the minimal inhibitory concentration (MIC) with S. aureus (ATCC 29213) is 8 µM (≈ 3.08 µg/mL); in the experiment with E. coli (ATCC 25922), 125 µM (≈ 48.1 µg/mL). Further, the “antibacterial activity against S. aureus ATCC 29213” value in the experiment on S. aureus (ATCC 29213) (in words) is listed as “modest antibacterial activities”. For the same molecule, the half-inhibitory concentration (IC50) is over 100 µM in [1] (pH 7.2, p-nitrophenyl-α-D-glucopyranoside, footnote *); over 100 µM in experiment [2] (pH 6.8, p-nitrophenyl-α-D-galactopyranoside, footnote *); 0.7 ± 0.03 µM in [3] (pH 5.0, p-nitrophenyl-β-D-glucopyranoside, footnote *); 0.1 ± 0.03 µM in [4] (footnote *); 0.2 ± 0.01 µM on naringinase (Nar) (footnote *); 0.02 ± 0.001 µM in experiment [5] (pH 5.2, footnote *, read-out: IC50 GBA pH 5.2). Besides, the half-maximal inhibitory concentration (IC50) is 0.001 ± 0.001 µM in experiment [5] (pH 7.0, footnote *, read-out: IC50 GBA pH 7.0) and over 10 µM in experiment [6] (footnote *). The “IC50 human recombinant β-glucocerebrosidase” value in [5] (in words) is “low nanomolar range”.
